Key:
Assay type in all cases: in vivo, C57BL/6 mice
[1] = tested on: aged, male, bleomycin-treated mice; assay: Automated histopathological analysis of lung samples, Example 1
Experimental: (§1) Treatment: seven groups of mice were treated as put forth in Table A. Mice in groups 2-7 were challenged with bleomycin solution on Day 0 of the study by a single oropharyngeal installation of bleomycin solution such that the mice were given 1.5 U/kg based on the average body weight of the animals. On day 6 of the study, all mice were randomized based on body weight loss plus their PenH value (see below) as measured on Day 6.
(§2) Mice in treatment groups 1 and 2 were administered a vehicle control subcutaneously once every 4 days (Q4D) from day 7 to day 21. Mice in treatment group 3 were administered SDX-7320 subcutaneously Q4D from day 7 to day 21 at a dose of 8 mg/kg (i.e., 4 doses). Mice in treatment group 4 were administered pirfenidone orally (PO) twice a day (BID) from day 7 to day 21 at a dose of 100 mg/kg. […]
Histopathological Analysis: Automatic quantification of morphological features of pulmonary fibrosis were performed using MorphoQuant™ (Biocellvia, France), an automated AI-based digital pathology software for quantification, from the digitalized images (scans) of PSR-stained or antibody labeled lung sections. MorphoQuant™ uses principles of morphometric analysis to detect and quantify specific lung disease features from histological slides (Gilhodes et al. 2017; Michaudel, Fauconnier, et al. 2018). […]

[2] = tested on: aged, male, bleomycin-treated mice; assay: Respiratory function by whole-body plethysmography (PenH, respiratory rate), Example 1; conditions: FIG. 3, day 20 post BLM; SDX-7320 8 mg/kg SC Q4D; nintedanib 50 mg/kg PO QD; pirfenidone 100 mg/kg PO BID
Experimental: Animals: Aged, male C57BL/6 mice from Jackson Laboratories, 72 weeks old at the time of randomization were used in this study.
Mice in treatment groups 1 and 2 were administered a vehicle control subcutaneously once every 4 days (Q4D) from day 7 to day 21. […]
Respiratory Function: Respiratory function of the mice were measured using plethysmography. […] After the acclimatization period, the baseline functional respiratory parameters were measured by the whole-body plethysmograph (VivoFlow by SCIREQ) on Day 6 (before treatment introduction and process to the randomization), Days 13 and 20, post-BLM administration. […] The functional respiratory parameters analyzed include respiratory rate and PenH (pulmonary congestion index). […]

[3] = tested on: aged, male, bleomycin-treated mice; assay: Wet lung weight (edema), Example 1; conditions: FIG. 6, day 21, compared to BLM-treated mice; SDX-7320 8 mg/kg SC Q4D; nintedanib 50 mg/kg PO QD; pirfenidone 100 mg/kg PO BID
Experimental: as §1
as §2, with “mg/kg. Mice in treatment group 5 were administered nintedanib orally (PO) once a day (QD) from day 7 to day 21 at a dose of 50 mg/kg.” for “mg/kg.”
Lung weight: Lungs were harvested, and the wet lung weights (signifying edema) were recorded.
Statistical Analysis: All parameters were analyzed in the same manner and results were expressed as means±SEM with Graph Pad Prism Software version 8.0 (San Diego, CA, USA). […]

For `COC(=O)c1ccc2c(c1)NC(=O)/C2=C(\Nc1ccc(N(C)C(=O)CN2CCN(C)CC2)cc1)c1ccccc1` [nintedanib, Methyl (Z)-3-[[[4-[N-methyl-2-(4-methylpiperazin-1-yl)acetamido]phenyl]amino](phenyl)methylene]-2-oxoindoline-6-carboxylate], the “deposition of collagen in lung tissue” value ([1]; FIG. 22 and Table C, COL1A1, following exposure to bleomycin, SDX-7320 8 mg/kg SC Q4D, nintedanib 50 mg/kg PO QD) was “almost no activity”, the “COL1A1 area (%)” value ([1]; Table C/FIG. 22, aged male mice, bleomycin 1.5 U/kg oropharyngeal, treatment day 7 to 21, SDX 8 mg/kg SC Q4D, Nin 50 mg/kg PO QD, ab270993 antibody labeled) was 1.387 ± 1.638% and the “pulmonary congestion (PenH)” value [2] was “increased the pulmonary congestion”. The “lung weight (wet)” value [3] was “did not significantly reduce lung weight”.

With `Cc1ccc(=O)n(-c2ccccc2)c1` [pirfenidone, 5-Methyl-1-phenyl-1H-pyridin-2-one] the “lung weight (wet)” value [3] was “did not significantly reduce lung weight”.

From US20260355144A1, “METAP2 INHIBITORS FOR THE TREATMENT OF PULMONARY FIBROSIS” (SynDevRx , Inc., priority 2022, published 2026)
